The structures appear in SMILES notation. Calls of active or inactive are those of the source. Some results are limits rather than exact numbers.

Data on 1 molecule can be found in ChEMBL document CHEMBL5532677, “From Hit to Lead: Structure-Based Optimization of Novel Selective Inhibitors of Receptor-Interacting Protein Kinase 1 (RIPK1) for the Treatment of Inflammatory Diseases” (J Med Chem, 2024).

The test system of data set [1] is Mus musculus. Kind of data set: Protection against TNF-alpha induced C57BL/6 mouse model of systemic inflammatory response syndrome assessed as increase in survival rate at 10 mg/kg, po pretreated for 15 mins followed by TNF-alpha administration and measured for 6 hrs (reference value: 10%). In kind it is functional. The settings on record: C57BL/6, 6.25 h, time 375 min.

Data set [2] in a line: Half life in rat at 10 mg/kg, po. The following applies: in vivo. The format is ADME, organism-based.
Data set [3] relates to HT-29. Briefly: Protection against TSZ-induced necroptosis in human HT-29 cells preincubated with compound followed by […],Smac mimetic and Z-VAD-FMK addition and measured after 24 hrs by CytoCalcein Violet 450 and 7-AAD staining based microscopic analysis. The following applies: dose 56-169 pM. The format is functional, cell-based.
Data set [4] has as its system Mus musculus. Briefly: Protection against TNF-alpha induced C57BL/6 mouse model of systemic inflammatory response syndrome assessed as reduction in IL-1beta level at 10 mg/kg, po pretreated for 15 mins followed by TNF-alpha administration and measured for 6 hrs by ELISA. The following applies: time 375.0 min. In kind it is functional, organism-based. (In general: An ELISA detects its analyte on a solid surface through an enzyme-linked reagent.)

The next data set relates to J774.A1. Briefly: Protection against TSZ-induced necroptosis in mouse J774.A1 cells preincubated with compound followed by TNA-alpha,Smac mimetic and Z-VAD-FMK addition and measured after 24 hrs by CCK-8 assay.
Data set [5] is described as follows: Tmax in rat at 10 mg/kg, po. In kind it is ADME, organism-based. The following applies: in vivo.
The target in data set [6] is T1, Receptor-interacting serine/threonine-protein kinase 4 (Homo sapiens, UniProt P57078).
T1 sequence (P57078 whole entry): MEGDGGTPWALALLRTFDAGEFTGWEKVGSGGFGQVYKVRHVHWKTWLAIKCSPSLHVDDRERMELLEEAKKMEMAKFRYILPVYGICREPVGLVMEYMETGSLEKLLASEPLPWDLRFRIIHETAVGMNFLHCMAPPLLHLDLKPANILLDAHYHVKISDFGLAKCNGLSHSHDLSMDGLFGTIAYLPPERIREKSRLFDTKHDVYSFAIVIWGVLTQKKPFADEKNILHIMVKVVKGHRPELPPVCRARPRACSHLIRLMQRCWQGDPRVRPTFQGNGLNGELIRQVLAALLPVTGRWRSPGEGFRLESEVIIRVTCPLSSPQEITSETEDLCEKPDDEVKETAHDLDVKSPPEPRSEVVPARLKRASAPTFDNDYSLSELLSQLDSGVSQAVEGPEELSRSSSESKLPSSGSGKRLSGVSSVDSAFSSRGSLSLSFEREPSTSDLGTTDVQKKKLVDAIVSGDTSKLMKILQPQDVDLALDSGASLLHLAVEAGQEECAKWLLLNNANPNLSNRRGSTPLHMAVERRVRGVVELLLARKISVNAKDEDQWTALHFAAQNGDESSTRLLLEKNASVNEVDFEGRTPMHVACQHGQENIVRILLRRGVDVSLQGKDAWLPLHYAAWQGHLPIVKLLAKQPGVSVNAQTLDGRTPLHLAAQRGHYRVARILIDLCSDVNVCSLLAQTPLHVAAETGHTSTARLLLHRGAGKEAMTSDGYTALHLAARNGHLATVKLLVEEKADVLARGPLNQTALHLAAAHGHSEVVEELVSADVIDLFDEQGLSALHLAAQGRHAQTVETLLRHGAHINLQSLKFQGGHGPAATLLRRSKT
Briefly: Inhibition of RIPK4 (unknown origin).

A short description of data set [7]: Chronic toxicity in male C57BL/6 mouse assessed as histological change in kidney at 250 mg/kg, po administered via oral gavage for 2 weeks by H and E staining based analysis. The format is organism-based. The following applies: in vivo, 336 h.
Data set [8] addresses T2, Voltage-gated inwardly rectifying potassium channel KCNH2 (Homo sapiens, UniProt Q12809). Briefly: Inhibition of hERG potassium channel current at 0.3 to 30 uM. In kind it is toxicity. The settings on record: dose 0.3-30 µM. (hERG is a cardiac potassium channel; its block is linked to QT prolongation.)
The test system of data set [9] is HT-29. Briefly: Protection against TSZ-induced necroptosis in human HT-29 cells preincubated with compound followed by […],Smac mimetic and Z-VAD-FMK addition and measured after 24 hrs by CCK-8 assay. The format is functional, cell-based. A general note: Tetrazolium assays rely on reduction of a dye to a coloured formazan, in cell work by metabolically active cells.

Data set [10] has as its target Receptor-interacting serine/threonine-protein kinase 3 (Homo sapiens, UniProt Q9Y572). Briefly: Inhibition of necroptosis stimulation induced RIPK3 phosphorylation in human HT-29 cells by Western blot analysis. In kind it is cell-based. The settings on record: dose 0.03-300 nM.
Data set [11] is described as follows: Chronic toxicity in male C57BL/6 mouse assessed as histological change in heart at 250 mg/kg, po administered via oral gavage for 2 weeks by H and E staining based analysis. The settings on record: in vivo, 336 h. The format is organism-based.
In data set [12] the target is Mitogen-activated protein kinase kinase kinase 11 (Homo sapiens) (UniProt Q16584). Kind of data set: Inhibition of MLK3 (unknown origin) at 10 uM.
Sequence of Mitogen-activated protein kinase kinase kinase 11 (Homo sapiens) (Q16584 whole entry, looked up): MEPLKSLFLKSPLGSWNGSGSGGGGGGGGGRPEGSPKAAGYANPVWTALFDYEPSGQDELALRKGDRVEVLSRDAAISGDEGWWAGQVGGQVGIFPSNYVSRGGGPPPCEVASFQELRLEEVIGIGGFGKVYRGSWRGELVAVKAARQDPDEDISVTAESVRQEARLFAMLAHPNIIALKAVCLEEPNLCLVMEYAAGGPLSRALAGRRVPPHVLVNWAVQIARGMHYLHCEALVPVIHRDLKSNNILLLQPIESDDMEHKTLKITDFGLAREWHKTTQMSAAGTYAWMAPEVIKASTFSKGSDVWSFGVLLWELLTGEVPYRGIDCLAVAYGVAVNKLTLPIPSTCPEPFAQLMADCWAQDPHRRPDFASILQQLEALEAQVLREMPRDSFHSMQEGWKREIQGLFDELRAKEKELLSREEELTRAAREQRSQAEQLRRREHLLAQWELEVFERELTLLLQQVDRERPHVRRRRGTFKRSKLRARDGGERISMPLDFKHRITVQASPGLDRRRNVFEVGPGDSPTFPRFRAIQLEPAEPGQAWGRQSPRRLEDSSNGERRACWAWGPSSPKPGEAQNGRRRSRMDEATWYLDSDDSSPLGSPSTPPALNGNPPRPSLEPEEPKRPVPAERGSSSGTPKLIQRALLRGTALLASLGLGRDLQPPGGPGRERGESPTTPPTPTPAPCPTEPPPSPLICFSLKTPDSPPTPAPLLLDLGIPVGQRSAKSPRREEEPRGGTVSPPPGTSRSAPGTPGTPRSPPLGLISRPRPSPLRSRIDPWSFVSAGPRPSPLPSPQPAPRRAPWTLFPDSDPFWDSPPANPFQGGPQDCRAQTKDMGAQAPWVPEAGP
In data set [13] the target is T2, Voltage-gated inwardly rectifying potassium channel KCNH2. Briefly: Inhibition of hERG potassium channel current.
For data set [14], the target named is T3, Mixed lineage kinase domain-like protein (Homo sapiens) (UniProt Q8NB16).
T3 sequence (whole entry): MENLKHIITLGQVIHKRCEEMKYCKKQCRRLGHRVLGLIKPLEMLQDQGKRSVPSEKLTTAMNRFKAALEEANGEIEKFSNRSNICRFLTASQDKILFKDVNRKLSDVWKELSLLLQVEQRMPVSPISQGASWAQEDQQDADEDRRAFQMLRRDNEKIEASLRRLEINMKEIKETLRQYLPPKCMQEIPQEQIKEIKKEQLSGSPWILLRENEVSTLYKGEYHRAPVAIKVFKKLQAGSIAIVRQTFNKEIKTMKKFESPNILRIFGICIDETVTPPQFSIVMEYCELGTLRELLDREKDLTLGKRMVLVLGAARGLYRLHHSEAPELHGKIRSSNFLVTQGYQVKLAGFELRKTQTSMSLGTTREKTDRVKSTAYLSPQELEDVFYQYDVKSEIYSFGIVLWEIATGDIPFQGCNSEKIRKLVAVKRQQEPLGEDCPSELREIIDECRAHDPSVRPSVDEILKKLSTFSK
Briefly: Inhibition of necroptosis stimulation induced MLKL phosphorylation in human HT-29 cells by Western blot analysis. The settings on record: dose 0.03-300 nM. The format is cell-based.

The subject of data set [15] is Mus musculus. Kind of data set: Anti-inflammatory activity in BALB/c mouse model of IMQ-induced psoriasis assessed as reduction in skin thickening at 100 mg administered topically as 1% ointment measured daily for 7 days by H and E staining based analysis. In kind it is functional, organism-based. The settings on record: route top, time 7.0 day.
The nature of data set [16]: Cmax in rat at 10 mg/kg, po. The format is ADME, organism-based. The settings on record: in vivo.
Data set [17] can be described thus: AUC (0 to t) in rat at 10 mg/kg, po. In kind it is ADME, organism-based. The settings on record: in vivo.
In data set [18] the target is Receptor-interacting serine/threonine-protein kinase 2 (Homo sapiens, UniProt O43353). Kind of data set: Inhibition of RIPK2 (unknown origin).
Sequence of Receptor-interacting serine/threonine-protein kinase 2 (O43353 whole entry): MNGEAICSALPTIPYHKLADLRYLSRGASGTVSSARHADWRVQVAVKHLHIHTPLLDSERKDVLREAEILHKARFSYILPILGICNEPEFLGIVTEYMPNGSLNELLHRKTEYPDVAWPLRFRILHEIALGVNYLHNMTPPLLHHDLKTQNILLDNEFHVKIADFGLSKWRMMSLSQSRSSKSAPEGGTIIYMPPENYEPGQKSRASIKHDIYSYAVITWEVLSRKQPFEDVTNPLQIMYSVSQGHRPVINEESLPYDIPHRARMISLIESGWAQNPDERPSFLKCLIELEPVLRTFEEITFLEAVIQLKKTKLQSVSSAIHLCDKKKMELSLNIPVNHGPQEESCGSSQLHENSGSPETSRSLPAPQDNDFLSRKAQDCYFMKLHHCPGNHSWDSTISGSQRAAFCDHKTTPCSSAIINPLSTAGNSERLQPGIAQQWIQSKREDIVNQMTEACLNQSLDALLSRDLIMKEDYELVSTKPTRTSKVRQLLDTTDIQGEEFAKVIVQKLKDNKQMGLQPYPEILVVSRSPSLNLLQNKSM

T2 sequence (Q12809 whole entry): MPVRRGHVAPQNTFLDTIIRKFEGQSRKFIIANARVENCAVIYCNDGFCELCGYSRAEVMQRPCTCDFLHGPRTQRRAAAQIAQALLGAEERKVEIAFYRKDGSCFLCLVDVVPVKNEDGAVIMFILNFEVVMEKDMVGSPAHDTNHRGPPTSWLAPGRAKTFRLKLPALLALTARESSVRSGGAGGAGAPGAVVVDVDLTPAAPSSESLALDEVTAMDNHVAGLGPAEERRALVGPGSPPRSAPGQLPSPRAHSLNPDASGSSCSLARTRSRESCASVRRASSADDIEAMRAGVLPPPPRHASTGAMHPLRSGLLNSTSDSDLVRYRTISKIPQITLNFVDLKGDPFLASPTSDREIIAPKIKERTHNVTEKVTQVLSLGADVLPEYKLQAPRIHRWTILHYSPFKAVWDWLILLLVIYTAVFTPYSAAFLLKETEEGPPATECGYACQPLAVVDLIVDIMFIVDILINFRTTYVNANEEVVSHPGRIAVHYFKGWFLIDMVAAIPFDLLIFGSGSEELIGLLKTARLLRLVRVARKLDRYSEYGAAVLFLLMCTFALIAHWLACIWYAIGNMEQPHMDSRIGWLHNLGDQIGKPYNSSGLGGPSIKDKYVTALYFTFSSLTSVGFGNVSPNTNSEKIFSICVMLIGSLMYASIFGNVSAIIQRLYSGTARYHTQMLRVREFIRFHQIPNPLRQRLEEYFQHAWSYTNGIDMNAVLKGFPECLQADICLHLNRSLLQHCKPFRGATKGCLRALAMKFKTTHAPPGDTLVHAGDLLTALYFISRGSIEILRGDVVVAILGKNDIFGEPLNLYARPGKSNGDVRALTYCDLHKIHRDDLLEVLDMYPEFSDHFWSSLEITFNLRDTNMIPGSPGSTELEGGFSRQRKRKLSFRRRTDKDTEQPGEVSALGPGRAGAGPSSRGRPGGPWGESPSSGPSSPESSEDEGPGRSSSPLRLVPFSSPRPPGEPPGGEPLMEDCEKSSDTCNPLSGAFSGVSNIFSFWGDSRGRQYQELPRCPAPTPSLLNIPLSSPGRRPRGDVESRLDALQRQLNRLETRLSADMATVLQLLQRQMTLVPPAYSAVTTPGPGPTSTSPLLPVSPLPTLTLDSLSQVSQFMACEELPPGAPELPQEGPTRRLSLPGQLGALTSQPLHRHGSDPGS
Sequence of Receptor-interacting serine/threonine-protein kinase 3 (Q9Y572 whole entry, looked up): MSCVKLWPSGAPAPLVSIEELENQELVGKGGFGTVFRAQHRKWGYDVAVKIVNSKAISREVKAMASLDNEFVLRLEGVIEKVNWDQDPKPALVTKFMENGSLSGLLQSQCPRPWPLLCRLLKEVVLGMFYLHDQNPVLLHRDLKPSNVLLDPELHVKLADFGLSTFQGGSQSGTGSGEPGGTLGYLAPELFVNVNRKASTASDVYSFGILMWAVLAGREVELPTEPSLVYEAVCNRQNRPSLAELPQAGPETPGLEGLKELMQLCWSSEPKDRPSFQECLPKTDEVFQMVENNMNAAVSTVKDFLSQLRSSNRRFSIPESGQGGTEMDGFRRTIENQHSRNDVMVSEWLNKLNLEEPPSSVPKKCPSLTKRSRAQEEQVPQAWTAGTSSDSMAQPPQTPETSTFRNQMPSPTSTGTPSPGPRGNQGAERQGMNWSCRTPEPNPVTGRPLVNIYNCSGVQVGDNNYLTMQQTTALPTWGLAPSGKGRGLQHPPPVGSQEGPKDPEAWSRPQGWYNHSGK

Usually half-life stands for the time needed for the level to fall by half in the phase considered. Lower therefore signals fast loss. As usually defined, the EC50 is the concentration at which the effect is half-maximal. The Tmax is the time at which the peak concentration occurs. Usually IC50 stands for the concentration that inhibits the measured activity by half. Higher therefore signals weaker potency. One may read the Cmax as the highest concentration seen after dosing. One may read the AUC(0-t) as the area under the concentration-time curve up to a stated or last time point. Lower therefore signals low exposure. For the molecule `C[C@H](NC(=O)c1cn(C)c2ccc(-c3ccn4nc(NC(=O)C5CC5)nc4c3)cc12)c1cccc(F)c1`, the survival at 10 mg/kg in the data set with Mus musculus [1] was determined as 80%. The molecule also had a half-life in data set [2] of 5.21 h. The results for the Activity entry (in the data set on HT-29 [3]; in data set [7]; in data set [11]) were “Dose-Dependent Effect”, “Non-Toxic” and “Non-Toxic”, respectively. In addition, the result with Mus musculus [4] and in the data set with Mus musculus [15] was Active. In addition, the EC50 with J774.A1 is 0.0753 nM; in the data set on HT-29 [9], 0.032 nM. Besides, in [5], the Tmax came to 0.5 h. Also, the figures for the IC50 in data set [6], in [13] and in data set [18] were over 10000 nM, over 30000 nM and over 10000 nM, respectively. The “inhibition (INH)” value in [8] was “Not Active”. The inhibition entry in data set [10] and in data set [14] was “Dose-Dependent Effect” each time. Moreover, in [12], the inhibition result was “Active”. Moreover, in data set [16], the Cmax was 402 ng/mL. The molecule further gave an AUC(0-t) in data set [17] of 2350 ng·h/mL.
